Results on eight compounds are retold here after patent US8722649B2, “Alpha-chloro and alpha-bromo phosphonate analogs of lysophosphatidic acid and methods of making and using thereof” (University of Utah Research Foundation, priority 2007, dated 2014).

Like-named read-outs stand apart in the source and are kept apart here.

The target in one assay is T1, recombinant ATX-HA (Homo sapiens, UniProt Q13822).
T1 construct: HA
Nature of the assay: Autotaxin assay (FS-3 hydrolysis). To be noted: for Inhibition (%) of autotaxin (ATX) phosphodiesterase activity / inhibition at 10 µM: FS-3 substrate. The class given is biochemical. Here is the method: Autotaxin Assay. This assay utilizes FS-3 (Echelon Biosciences, Inc. Salt Lake City, Utah) as substrate and recombinant ATX-HA. For analysis, 50 μl of ATX-HA (0.25 μg) in assay buffer (Tris 50 mM, NaCl 140 mM, KCl 5mM, CaCl2 1 mM, MgCl2 1 mM, pH 8.0) was mixed with 25 μl of FS-3 (1 μM final concentration in assay buffer) and 25 μl of test compound dissolved in assay buffer containing 1:1.5 bovine serum albumin in 96-well plate. FS-3 fluorescence was monitored using FLEXstation fluorescence plate reader at a time zero and after 2 hours of incubation at 37° C. at excitation and emission wavelengths of 485 nm and 538 nm, respectively. Data was normalized to the corresponding vehicle control and the mean±standard deviation of triplicate wells were expressed as percent ATX inhibition. IC50, and Ki values were calculated as described.

The next assay addresses T2, human LPA1 (Homo sapiens, UniProt Q92633).
T2 construct: expressed in transfected cells
Nature of the assay: Ca2+ mobilization assay, LPA1. The class given is cell-based. The note with it: for EC50: RH7777 cells stably expressing LPA1, agonist mode; for LPA1 (Emax): Emax = (maximal efficacy of compound/maximal efficacy of LPA 18:1) × 100; for LPA1 ligand type: agonist/antagonist in words. Here is the method: (§1) Receptor activation using Ca^2+ mobilization assay for diastereomers of 1 (also represented as 19b). The rat hepatoma (RH7777) cell lines individually expressing either LPA1, LPA2, LPA3 or LPA5 receptors and Chinese hamster ovary (CHO) cell line were analyzed to examine agonism and antagonism. […] CHO cells stably expressing either vector or LPA4 were kindly gifted from Dr. Shimizu (University of Tokyo, Tokyo, Japan).
(§2) Stable transformants of LPA1/2/3 receptors. RH7777 cells stably expressing each receptor were plated onto poly-L-lysine (PLL) (0.1 mg/mL)-coated black-wall clear-bottom 96-well plates (Corning Incorporated Life Sciences, Acton, Mass.) at a density of 5×10^4 cells/well and cultured overnight. The following day, the culture medium was replaced with modified Krebs buffer (120 mM NaCl, 5 mM KCl, 0.62 mM MgSO4, 1.8 mM CaCl2, 10 mM HEPES, 6 mM glucose, pH 7.4), and the cells were serum starved for 6 h. Subsequently, cells were loaded with Fura-2 AM (Invitrogen, Carlsbad, Calif.) for 35 min in modified Krebs buffer containing 2% (v/v) pluronic acid.
(§3) After incubating the cells with Fura-2 AM, the cells were rinsed with Krebs buffer and changes in the intracellular Ca^2+ concentration were monitored by determining the ratio of emitted light intensities at 520 nm in response to excitation at 340 and 380 nm using FLEXstation II (Molecular Devices, Sunnyvale, Calif.). Each well was monitored for 80-120 sec. For testing agonist activity of the compounds, the test compounds were added automatically after 15 sec of baseline measurement. To determine antagonist properties, varying concentrations of the compounds were mixed with a constant concentration of LPA and responses were monitored. Each test was performed in quadruplicate. EC50, IC50, and Ki values were calculated by fitting a sigmoid function to data points with the nonlinear curve-fitting feature of KaleidaGraph (Synergy Software, Essex Junction, Vt.).
Receptor activation using Ca^2+ mobilization assay. The assay for mobilization of intracellular Ca^2+ was performed as described. Briefly, rat hepatoma RH7777 cells stably expressing human LPA1, LPA2, or LPA3, and CHO cells stably expressing LPA4, were loaded with Fura-2 AM (Molecular Probes). Using a FLEXStation (Molecular Devices, Sunnyvale, Calif.), changes in intracellular Ca^2+ concentration were monitored. Ligand-induced changes in fluorescence were monitored for 80-120 seconds. Ca^2+ transients were quantified automatically by calculating the difference between maximum and baseline ratio values for each sample. To determine antagonist properties, different concentrations of each analogue were mixed with either palmitoyl (16:0) or oleoyl (18:1) LPA (200 nM for LPA1 and LPA3, 10 nM for LPA2, and 400 nM for LPA4) (Avanti Polar Lipids, Inc., […], Ala.) and responses were recorded. Each test was performed in quadruplicate. EC50, IC50, and Ki values were calculated as described. The ligand properties of the compounds were evaluated using Ca^2+ mobilization assay for assessing the activation/inhibition of LPA1, LPA2, and LPA3 expressed in RH7777 cells and LPA4 expressed in CHO cells. Table l illustrates calcium responses elicited through the activation of human LPA1, LPA2, LPA3 and LPA4 receptors. These cell lines have been used extensively for the characterization of LPA GPCR ligands because RH7777 cells are intrinsically unresponsive to LPA and CHO cells show minimal endogenous responses to LPA unless transfected with LPA4.

The next assay has as its target T3, human LPA2 (Homo sapiens, UniProt Q9HBW0).
T3 construct: expressed in transfected cells
As to the kind of experiment: Ca2+ mobilization assay, LPA2. The class given is cell-based. To be noted: for EC50: RH7777 cells stably expressing LPA2, agonist mode; for LPA2 (Emax): Emax = (maximal efficacy of compound/maximal efficacy of LPA 18:1) × 100; for LPA2 ligand type: agonist/antagonist in words. Here is the method: as §1, §2
as §3, with “To determine antagonist properties, varying concentrations of the compounds were mixed with a constant concentration of LPA and responses were monitored.” left out
Receptor activation using Ca^2+ mobilization assay. The assay for mobilization of intracellular Ca^2+ was performed as described. Briefly, rat hepatoma RH7777 cells stably expressing human LPA1, LPA2, or LPA3, and CHO cells stably expressing LPA4, were loaded with Fura-2 AM (Molecular Probes). Using a FLEXStation (Molecular Devices, Sunnyvale, Calif.), changes in intracellular Ca^2+ concentration were monitored. Ligand-induced changes in fluorescence were monitored for 80-120 seconds. Ca^2+ transients were quantified automatically by calculating the difference between maximum and baseline ratio values for each sample. […] Each test was performed in quadruplicate. EC50, IC50, and Ki values were calculated as described. The ligand properties of the compounds were evaluated using Ca^2+ mobilization assay for assessing the activation/inhibition of LPA1, LPA2, and LPA3 expressed in RH7777 cells and LPA4 expressed in CHO cells.
In general terms: Calcium assays in cells follow changes in intracellular calcium, usually with a dye or a luminescent sensor.

Setting [1] is: 10 μM, read-out: ATX Inhibition (Table 2).
[2] abbreviates: antagonist mode vs 200 nM LPA, PA = partial antagonist, read-out: LPA1 IC50.
Where [3] appears, read: diastereomer study, RH7777 cells, read-out: LPA1 IC50 (Table 2).
Where [4] appears, read: diastereomer study, RH7777 cells, read-out: LPA1 Ki (Table 2).
Where [5] appears, read: antagonist mode vs 10 nM LPA, PA = partial antagonist, read-out: LPA2 IC50.
The mark [6] stands for this setting: antagonist mode vs 10 nM LPA, read-out: LPA2 (Ki).
The mark [7] stands for this setting: diastereomer study, RH7777 cells, read-out: LPA2 IC50 (Table 2).
Where [8] appears, read: diastereomer study, RH7777 cells, read-out: LPA2 Ki (Table 2).
The mark [9] stands for this setting: 10.0 μM, preliminary single-dose screen.

T3 sequence (Q9HBW0 whole entry): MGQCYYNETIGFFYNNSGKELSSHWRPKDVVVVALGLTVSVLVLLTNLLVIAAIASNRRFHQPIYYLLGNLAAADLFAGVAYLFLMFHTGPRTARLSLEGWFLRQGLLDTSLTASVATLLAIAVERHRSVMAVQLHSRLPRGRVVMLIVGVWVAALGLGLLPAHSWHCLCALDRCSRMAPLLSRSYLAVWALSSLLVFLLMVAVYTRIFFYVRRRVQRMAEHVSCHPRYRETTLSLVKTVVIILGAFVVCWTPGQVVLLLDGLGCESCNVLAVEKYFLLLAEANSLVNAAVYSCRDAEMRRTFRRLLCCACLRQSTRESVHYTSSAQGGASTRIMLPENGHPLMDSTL
T2 sequence (Q92633 whole entry): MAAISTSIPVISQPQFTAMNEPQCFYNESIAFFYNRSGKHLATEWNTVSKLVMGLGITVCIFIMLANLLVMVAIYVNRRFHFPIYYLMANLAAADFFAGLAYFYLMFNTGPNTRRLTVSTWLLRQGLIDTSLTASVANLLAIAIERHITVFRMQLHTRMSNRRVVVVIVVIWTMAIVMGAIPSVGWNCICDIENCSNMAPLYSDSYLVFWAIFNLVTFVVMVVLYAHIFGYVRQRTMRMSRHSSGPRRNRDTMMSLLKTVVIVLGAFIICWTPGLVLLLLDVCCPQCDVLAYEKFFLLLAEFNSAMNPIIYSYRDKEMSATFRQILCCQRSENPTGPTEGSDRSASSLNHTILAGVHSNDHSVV

One may read the inhibition as the relative decrease from the control value, in per cent. By EC50 is commonly meant the concentration that produces a half-maximal response. In general, IC50 refers to the concentration needed to halve the response being measured. For orientation: Ki means the dissociation constant of the complex between target and ligand, obtained from inhibition or displacement. In the case of `CCCCCCCCCCCCCCCC(=O)OC[C@@H](O)CC(Br)P(=O)(O)O` (mixture of isomers) [Compound 1, [1-Bromo-3(S)-hydroxyl-4-(palmitoyloxy)butyl]-phosphonate], the “Inhibition (%) of autotaxin (ATX) phosphodiesterase activity” value (“Inhibition (%) of autotaxin” for short) on recombinant ATX-HA (10.0 μM, preliminary single-dose screen, listed as 19b) came out at 93.7 ± 2.0%. The inhibition at 10 µM at recombinant ATX-HA (10.0 μM, preliminary single-dose screen, read-out: Inhibition (%) of autotaxin (ATX) phosphodiesterase activity) is more than 90%; at recombinant ATX-HA (setting [1]) it was 102 ± 2.7%. Further, the EC50 on human LPA1 and at human LPA2 was more than 30000 nM each time. In addition, the half-inhibitory concentration (IC50) on human LPA1 (setting [2]) came out at 1500 ± 559 nM; on human LPA1 (setting [3]), 4520 nM; at human LPA2 (setting [5]), 1420 ± 83 nM; at human LPA2 (setting [7]), 468 nM. In addition, the Ki amounted to 751 nM on human LPA1 (antagonist mode vs 200 nM LPA, read-out: LPA1 (Ki)); 805 nM on human LPA1 (setting [4]); 304 nM at human LPA2 (setting [6]); 245 nM on human LPA2 (setting [8]).
For `CCCCCCCCC=CCCCCCCCC(=O)OCC(O)CC(O)P(=O)([O-])O.[Na+]` (mixture of isomers) [Compound 22a, reference compound], on recombinant ATX-HA (setting [9]), the “Inhibition (%) of autotaxin” value stood at 74.7%. Further, on human LPA1, the “LPA1 (Emax)” value is recorded as “(39.1 ± 3.15)” and the EC50 is more than 9250 nM. Moreover, the 50% inhibitory concentration (IC50) on human LPA1 (setting [2]) is more than 30000 nM. Moreover, on human LPA2, the “LPA2 (Emax)” value was “(71.9 ± 6.0)” and the EC50 was more than 2160 nM.
As for `CCCCCCCCCCCCCCCC(=O)OCC(O)CC(O)P(=O)([O-])O.[Na+]` (mixture of isomers) [Compound 22b, reference compound], the “Inhibition (%) of autotaxin” value at recombinant ATX-HA (setting [9]) came out at 54.1%. In addition, the EC50 on human LPA1 and on human LPA2 was more than 30000 nM in each case. The IC50 at human LPA1 (setting [2]) was more than 30000 nM.
For the compound `CCCCCCCCCCCCCCCC(=O)OC[C@@H](O)C[C@@H](Br)P(=O)(O)O` [Compound 1a], at recombinant ATX-HA (setting [1]), the inhibition at 10 µM came out at 98.1 ± 2.3%. The LPA1 ligand type entry at human LPA1 was “Antagonist”. Moreover, the IC50 stood at 648 nM on human LPA1 (setting [3]) and 288 nM on human LPA2 (setting [7]). Also, the results for the Ki at human LPA1 (setting [4]) and on human LPA2 (setting [8]) were 273 nM and 250 nM, respectively. Also, the LPA2 ligand type result on human LPA2 is given as “Antagonist”.
Consider `CCCCCCCCCCCCCCCC(=O)OC[C@@H](O)C[C@H](Br)P(=O)(O)O` [Compound 1b], for which the inhibition at 10 µM at recombinant ATX-HA (setting [1]) turned out to be 99.4 ± 2.7%. The IC50 was approximately 300 nM at recombinant ATX-HA (0.3 to 10 μM, FS-3 hydrolysis, read-out: ATX apparent IC50); 2080 nM at human LPA1 (setting [3]); 275 nM on human LPA2 (setting [7]). In addition, at human LPA1, the LPA1 ligand type entry is “Antagonist”. Further, the inhibition constant (Ki) at human LPA1 (setting [4]) amounted to 752 nM; on human LPA2 (setting [8]), 241 nM. Also, on human LPA2, the LPA2 ligand type entry is on record as “Antagonist”.
`CCCCCCCC/C=C\CCCCCCCC(=O)OCC(O)CCP(=O)(O)O` (centres unmarked) [Compound 20a, reference compound]: on recombinant ATX-HA (setting [9]), the “Inhibition (%) of autotaxin” value is listed as 99.8%. At human LPA1, the “LPA1 (Emax)” value is “(52.9 ± 11.3)” and the EC50 is more than 2520 nM. Also, the IC50 on human LPA1 (setting [2]) was more than 30000 nM. Further, at human LPA2, the “LPA2 (Emax)” value is on record as “(94.7 ± 4.3)” and the EC50 was more than 281 nM.
As to `CCCCCCCCCCCCCCCC(=O)OC[C@@H](O)CCP(=O)([O-])O.[Na+]` [Compound 20b, reference compound], at recombinant ATX-HA (setting [9]), the “Inhibition (%) of autotaxin” value is 60.6 ± 4.6%. Also, the EC50 on human LPA1 and at human LPA2 was more than 30000 nM throughout. The IC50 on human LPA1 (setting [2]) is more than 30000 nM; at human LPA2 (setting [5]), 2590 ± 875 nM. Further, at human LPA2 (setting [6]), the Ki is 1300 nM.
Regarding `CCCCCCCCCCCCCCCC(=O)OCC(O)COP(=O)(O)O` (centres unmarked) [LPA (16:0), reference compound], the “Inhibition (%) of autotaxin” value at recombinant ATX-HA (setting [9]) was determined as 38.1 ± 3.4%. Also, on human LPA1, the “LPA1 (Emax)” value was “(88.7 ± 3.6)” and the EC50 is 90.8 ± 20.9 nM. Further, the IC50 at human LPA1 (setting [2]) was more than 30000 nM. At human LPA2, the “LPA2 (Emax)” value was “(100.3 ± 1.9)” and the EC50 turned out to be 55.1 ± 4.3 nM.
